Reference: patent publication US5707821A, “Identification of phospholipase A2 inhibitors in Aβ peptide-mediated neurodegenerative disease” (priority 1995, dated 1998)

Assays:
Assay type in all cases: cell-based
[1] = system: IL-1β release by cultured human cortical microglia; assay: IL-1β release (ELISA) from Aβ1-40-stimulated human microglia
Procedure: (§1) Cultures of human cortical or hippocampal astrocytes and microglia were prepared using a modification of the procedure described for cortical neurons. Cortical tissue from fetuses of 16 to 20 weeks of gestation was washed 3 times in Ca^2+ /Mg^2+ free Hanks balanced salt solution (CMF HBSS) and then dissociated by repeated pipetting. The solution was brought to a final volume of 80 ml CMF HBSS for approximately 10 ml of tissue. DNase (Sigma) was added to a final concentration of 0.05 mg/ml. 20 ml of the solution was passed through one 100 μm nylon cell strained (Falcon). The cells were then centrifuged for 5 minutes at 200×G in an IEC Clinical Centrifuge and resuspended in a trypsin/EDTA solution (0.05% trypsin+0.53 mM EDTA in HBSS; Gibco) and incubated for 20 minutes at 37°C. (10 ml of trypsin was added per 2-3 ml of tissue). The trypsin was then inactivated by adding (MEM/FBS): Modified Eagle's Medium (MEM) containing 1% glucose, 1 mM sodium pyruvate, 1 mM glutamine, and supplemented with 10% fetal bovine serum (JRH). After adding a final concentration of 0.05 mg/ml DNase the cells were resuspended and then pelleted by centrifugation and resuspended in MEM/FBS. 1.6×10^8 cells were seeded in a T-150 tissue culture flask coated with polyethyleneimine (PEI). (10% PEI (Sigma) was diluted 1:10 in H2 O, filtered through a […] unit and then diluted into 150 mM sodium borate pH 8.5 at 1:100. The flasks were coated overnight at room temperature, washed two times in PBS and coated with 20 ml/flask of MEM/FBS at 37° C. for at least one hour prior to plating cells.) Cultures were maintained in a H2 O-saturated incubator with an atmosphere of 95% air/5% CO2 at 37° C. The culture medium was changed one and four days after plating and the cultures were then left undisturbed for at least one week. After approximately two weeks in vitro, the flasks were gently shaken and floating microglia were collected and centrifuged for 5 minutes at 200×G in an IEC Clinical Centrifuge. The microglia were reseeded in 96 well tissue culture plates at a density of 5,000-40,000 cells/well in 125 μl in MEM/FBS. Astrocyte cultures were prepared by multiple passaging of the established mixed brain cell cultures. Each T-150 was incubated for 3-4 minutes at 37°C. with a trypsin/EDTA solution (see above). The trypsin was then inactivated by adding MEM/FBS. The cells were triturated and then pelleted by centrifugation and resuspended in MEM/FBS. The cells from one T-150 were seeded at a 1:30 to 1:5 dilution in T-150's not coated. Just prior to confluency the cells were repassaged by trypsinization as described above. This process was repeated until the cultures were >98% pure astrocytes.
Cultured microglial cells were treated with 50 μM of Aβ1-40 or vehicle only (Control). The levels of IL-1β, IL-6, and TNF-α released into the culture medium were determined by ELISA assay (R&D Systems) according to manufacturer's instructions.
The effect of two benzenesulfonamide inhibitors of PLA2 (European Patent Application 468 054) were examined on the activation of microglial cells by Aβ1-40 as in Example 1.
(§2) The effects of the benzenesulfonamide PLA2 inhibitor AN20606 and the selective cytosolic PLA2 inhibitor arachidonyl trifluoromethyl ketone (AN20579) were examined in cultured human cortical microglia for their selectivity for inhibiting microglia activation mediated by amyloid-βpeptide and lipopolysaccharides (LPS). LPS are a major constituent of the cell wall of gama-negative bacteria and are extensively used for generating inflammatory responses in cultured cells and in vivo.

[2] = system: IL-1β release by cultured human cortical microglia; assay: IL-1 release from LPS-stimulated human cortical microglia
Procedure: as §1, §2

[3] = system: TNFα release by cultured human cortical microglia; assay: TNF release from LPS-stimulated human cortical microglia
Procedure: as §1, §2

[4] = 10 ng/ml LPS, inhibitor 20 μM where present

CN(C(=O)/C=C/c1ccc(S(C)(=O)=O)cc1)c1ccc(S(=O)(=O)NC2CCCCCC2)cc1 [AN20606, N-cycloheptyl-4-[N-methyl-N-[(E)-3-(4-methylsulfonylphenyl)-2-propenoyl]amino]benzenesulfonamide]
amount of IL-1β released into the medium (in words) ([1]; 50 μM Aβ1-40, 1 day, compound 0, 5, 10, 20 μM, FIG. 2): marked and dose-dependent decrease
IL-1 Released ([1]; 50 μM Aβ1-40, inhibitor 20 μM where present): 16.5 ± 6 pg/mL
Aβ1-40-mediated IL-1β release, selectivity versus LPS (in words) ([1]; Aβ1-40 versus LPS stimulation): selectively inhibited
activity at 20 µM ([1]; Homo sapiens, Microglia, 50 μM Aβ1-40 + 20 μM inhibitor, read-out: IL-1 Released, percent in parentheses (relative to Aβ1-40 alone)): 6%
IL-1 Released [2, 4]: 37 ± 0.3 pg/mL
activity at 20 µM ([2]; Homo sapiens, Microglia, 10 ng/ml LPS + 20 μM inhibitor, read-out: IL-1 Released, percent in parentheses (relative to LPS alone)): 163%
LPS-mediated cytokine release, IL-1 (in words) ([2]; LPS stimulation): actually enhanced
TNF Released [3, 4]: 632 ± 211 pg/mL
activity at 20 µM ([3]; Homo sapiens, Microglia, 10 ng/ml LPS + 20 μM inhibitor, read-out: TNF Released, percent in parentheses (relative to LPS alone)): 130%
LPS-mediated cytokine release, TNF (in words) ([3]; LPS stimulation): actually enhanced
